{
  "source": "patent US20260048036A1",
  "about": "“CRYSTALLINE FORMS OF A GLUCOSYLCERAMIDE SYNTHASE INHIBITOR AND USES THEREOF” (ACELINK THERAPEUTICS, INC., priority 2022, published 2026)",
  "key": {"[1]": {"test": "Approximate solubility at 25° C. by visual observation", "type": "physicochemical", "settings": "thermodynamic from solid", "description": "Free form Crystalline Form A of Compound 1 was used as the starting material for salt screening and selection study. […] Max. volume of each solvent added was 1 mL."}, "[2]": {"target": "T1, Glucosylceramide synthase (GCS) (Canis lupus familiaris, UniProt A0A8I3MXG6)", "T1 construct": "The MDCK, K-562, and L6 cell lines all endogenously express GCS enzyme; host or cells: MDCK (canine kidney) cell lysate", "T1 sequence (A0A8I3MXG6 1-394)": "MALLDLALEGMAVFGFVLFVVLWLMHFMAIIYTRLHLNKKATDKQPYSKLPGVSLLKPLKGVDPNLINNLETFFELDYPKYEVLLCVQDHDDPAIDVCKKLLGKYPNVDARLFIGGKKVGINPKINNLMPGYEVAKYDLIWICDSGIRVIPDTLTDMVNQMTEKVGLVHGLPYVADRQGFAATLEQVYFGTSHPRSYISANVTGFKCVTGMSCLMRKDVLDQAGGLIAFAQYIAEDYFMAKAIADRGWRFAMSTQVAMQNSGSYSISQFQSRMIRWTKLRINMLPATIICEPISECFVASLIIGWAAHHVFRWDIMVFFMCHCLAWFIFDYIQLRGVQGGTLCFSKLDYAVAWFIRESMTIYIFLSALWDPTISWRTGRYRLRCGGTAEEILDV", "test": "GCS enzymatic assay with MDCK cell lysate", "type": "biochemical, canine", "text": "The reaction product, C6-NBD-glucosylceramide, could then be detected and quantified by LC-MS/MS. The inventors used this method to test and validate the effect of various GCS inhibitors on GCS enzyme activity from different species.\nThe GCS enzyme activity was detected by using the fluorescent substrate, C6-NBD-ceramide, and monitoring the formation of the fluorescent reaction product, C6-NBD-glucosylceramide. First, the inventors used cell lysate derived from a canine kidney cell line (MDCK, ATCC Cat #CCL-34™) as the source of GCS and tested the inhibitory activity of several control and test compounds.\nGCS activity was evaluated using a GCS enzyme assay derived from MDCK or L6 cell lysates.\nMDCK or L6 cell lysates were prepared using M-PER in the presence of a protease inhibitor cocktail. Each 100 mm dish (100% confluent) was lysed with 250 μl of M-PER containing protease inhibitors. Protein concentration was determined using Pierce BCA protein assay kit.\nThe final concentration of DMSO was 0.1% in both compound treated and DMSO only treated samples. Each individual reaction was terminated with 11 volumes of methanol:acetonitrile (6:5; containing 200 ng/ml Tolbutamide as internal control). After sufficient mixing, reactions were centrifuged at 2000 rpm for 10 mins, supernatant was injected into the LC-MS/MS for analysis.\nThe quantitative analysis of C6-NBD-glucosylceramide was performed on a Shimadzu ultra-fast liquid chromatography coupled with API 4000 mass spectrometer. Analyst 1.5 software packages were used to control the LC-MS/MS system, as well as for data acquisition and processing.\nThe C6-NBD-glucosylceramide reading was normalized first by dividing the peak area of C6-NBD-glucosylceramide with the peak area of the internal standard, and then the amount was calculated according to the standard curve generated in the same assay run. For the cell based assay results, the amount of C6-NBD-glucosylceramide was also normalized by the protein concentration of the cell samples.\nIC50 values were generated from sigmoidal dose-response (variable slope) curves with GraphPad Prism software (GraphPad Software, Inc., San Diego, CA) using the percent inhibition of C6-NBD-glucosylceramide accumulation relative to DMSO control."}, "[3]": {"settings": "0.1 μM, 60 μg MDCK lysate/reaction, N = 1, N = 2"}},
  "note": "Where “and” joins values, the source holds several entries; their conditions need not be identical. Equal entries are not always repeated.",
  "data": [
    {"compound": "O=C(N[C@H](CN1CCCC1)[C@H](O)c1ccc(OC2CC2)c(Cl)c1)/C(=N/O)c1ccc2cc(Cl)ccc2c1", "note": "[Crystalline Form A of Compound 1]", "values": [
      {"measurement": "solubility", "setting": "[1]; organic solvent or mixture, Acetone", "result": "16700 to 25000", "unit": "µg/mL"},
      {"measurement": "solubility", "setting": "[1]; organic solvent or mixture, Acetonitrile", "result": "< 5000", "unit": "µg/mL"},
      {"measurement": "solubility", "setting": "[1]; organic solvent or mixture, Ethanol", "result": "5000 to 5500", "unit": "µg/mL"},
      {"measurement": "solubility", "setting": "[1]; organic solvent or mixture, Ethyl acetate", "result": "< 5000", "unit": "µg/mL"},
      {"measurement": "solubility", "setting": "[1]; Water", "result": "< 5000", "unit": "µg/mL"},
      {"measurement": "C6-NBD-Ceramide (Normalized to internal control)", "setting": "[2]; [3]", "result": "5.04 and 4.88"},
      {"measurement": "C6-NBD-Glucosylceramide Concentration", "setting": "[2]; [3]", "result": "33.1 nM and 32.5 nM"},
      {"measurement": "Inhibition", "setting": "[2]; [3]", "result": 96.72, "unit": "%"},
      {"measurement": "inhibition at 0.1 µM", "setting": "[2]; [3]", "result": 96.7, "unit": "%"},
      {"measurement": "IC50", "setting": "[2]; MDCK cell lysate as source of GCS, C6-NBD-glucosylceramide by LC-MS/MS", "result": 7.66, "unit": "nM"}
    ]}
  ]
}
